Laboratory results taken from patent US12708630B2, “Combined therapy of 4′-thio-5-aza-2′-deoxycytidine and Venetoclax” (PINOTBIO, INC., priority 2021, dated 2026).

Columns and labels:
NCI-H522 (NSCLC) = NCI-H522 (NSCLC) xenograft model; assay type: in vivo; conditions: nude mouse, 2 mg/kg, (6) cycles
Method: The efficacy of Aza-T-dCyd was confirmed by tumor growth curves after administration of Aza-T-dCyd in various solid cancer xenograft models. Aza-T-dCyd at a dose of 1~2 mg/kg was administered repeatedly for 2~6 cycles in QD×5, showing excellent anti-cancer effects (evidenced by test/control (T/C) value≤40%).

[1] = test system: p15 tumor suppressor gene; test: p15 tumor suppressor gene re-expression (RT-PCR) in MV4-11 cells; assay type: cell-based; conditions: for p15 mRNA re-expression: MV4-11 cell line
Method: Therefore, to determine the re-expression of tumor suppressor genes through epigenetic regulation mechanisms induced by DNMT1 inhibition upon Aza-T-dCyd (NTX-301) treatment, MV4-11 cells, an AML cell line, were treated with Aza-T-dCyd at different concentrations. […] Table 1 below compares the degree of p15 mRNA re-expression after DNMT1 inhibitor (Aza-T-dCyd/Decitabine) treatment in the MV4-11 cell line, an AML cell (fold increase from 0 nM is shown).

OVCAR-3 (ovarian) = OVCAR-3 (ovarian) xenograft model; assay type: in vivo; conditions: NSG mouse, (4) cycles
From the text: The efficacy of Aza-T-dCyd was confirmed by tumor growth curves after administration of Aza-T-dCyd in various solid cancer xenograft models. […]

Hs 688(A).T = test: drug activity profiling cytotoxicity; assay type: cell-based; conditions: Hs 688(A).T cell line, Skin (Melanoma); read-out: Aza-T-dCyd IC50
Method: (§1) To obtain a biomarker for Aza-T-dCyd, drug activity profiling analysis was performed to evaluate the cytotoxicity of 200 cell lines.
(§2) The drug responsiveness analysis of Aza-T-dCyd through drug activity profiling and genomic analysis of 200 cell lines confirmed the potent efficacy of Aza-T-dCyd in various solid tumors (Table 2).

Detroit 562 = test: drug activity profiling cytotoxicity; assay type: cell-based; conditions: Homo sapiens; Detroit 562 cell line, Head and Neck; read-out: Aza-T-dCyd IC50
Method: as §1, §2

Daoy = test: drug activity profiling cytotoxicity; assay type: cell-based; conditions: Homo sapiens; Daoy cell line, CNS (Medulloblastoma); read-out: Aza-T-dCyd IC50
Method: as §1, §2

D283 Med = test: drug activity profiling cytotoxicity; assay type: cell-based; conditions: Homo sapiens; D283 Med cell line, CNS (Medulloblastoma); read-out: Aza-T-dCyd IC50
Method: as §1, §2

A-253 = test: drug activity profiling cytotoxicity; assay type: cell-based; conditions: Homo sapiens, A253; A-253 cell line, Head and Neck; read-out: Aza-T-dCyd IC50
Method: as §1, §2

A204 = test: drug activity profiling cytotoxicity; assay type: cell-based; conditions: Homo sapiens; A204 cell line, Sarcoma; read-out: Aza-T-dCyd IC50
Method: as §1, §2

RPMI 8226 = test: drug activity profiling cytotoxicity; assay type: cell-based; conditions: Homo sapiens; RPMI 8226 cell line, B-cell myeloma; read-out: Aza-T-dCyd IC50
Method: as §1, §2

MEG01 = test: drug activity profiling cytotoxicity; assay type: cell-based; conditions: Homo sapiens, MEG-01; MEG01 cell line, CML; read-out: Aza-T-dCyd IC50
Method: as §1, §2

TCCSUP = test: drug activity profiling cytotoxicity; assay type: cell-based; conditions: Homo sapiens, TCC-SUP; TCCSUP cell line, Bladder; read-out: Aza-T-dCyd IC50
Method: as §1, §2

SH-4 = test: drug activity profiling cytotoxicity; assay type: cell-based; conditions: Homo sapiens; SH-4 cell line, Skin (Melanoma); read-out: Aza-T-dCyd IC50
Method: as §1, §2

[2] = Pharmacokinetic evaluation in Dog; assay type: in vivo; conditions: for AUC(0-inf) / AUC(0-t) / Cmax / half-life / Tmax: in vivo, Dog; for half-life: read-out: T½ (converted)
Method: (§3) Aza-T-dCyd was administered orally and intravenously at various concentrations to Mice, Rats and Dogs to determine the PK profile.

[3] = Pharmacokinetic evaluation in Mice (Table 3); assay type: in vivo; conditions: for AUC(0-inf) / AUC(0-t) / Cmax / Tmax / half-life: mouse, in vivo, Mice; for half-life: read-out: T½ (converted)
Method: as §3

GLP rat Toxicology study = assay type: in vivo, rats
Method: GLP-Tox studies have been conducted in rats and dogs, with 2 cycles of QD×5d at PO.
In the GLP rat Toxicology study, rats received 2.5, 5, and 10 mg/kg of Aza-T-dCyd (15, 30, and 60 mg/m2) per day.

**Q.** Which results are given for Nc1ncn([C@H]2CC(O)[C@@H](CO)S2)c(=O)n1 (stereo partly drawn) [Aza-T-dCyd, 4′-thio-5-aza-2′-deoxycytidine]?
**A.** Optimal T/C (%) (test/control) (NCI-H522 (NSCLC)): 31%; p15 mRNA re-expression ([1]; 6 nM): 1.4 ± 0.19 fold increase from 0 nM; p15 mRNA re-expression ([1]; 20 nM): 1.7 ± 0.38 fold increase from 0 nM; p15 mRNA re-expression ([1]; 60 nM): 2.6 ± 0.89 fold increase from 0 nM; p15 mRNA re-expression ([1]; 200 nM): 6.1 ± 0.86 fold increase from 0 nM; p15 upregulation compared with decitabine ([1]; MV4-11 cells): induced p15 upregulation better than decitabine; expression of p15 tumor suppressor gene (quantitative RT-PCR) ([1]; MV4-11 cells, 60 nM and 200 nM): significantly increased; p15 mRNA re-expression (RT-PCR) ([1]; MV4-11 cells, different concentrations, FIG. 14): strong re-expression of p15 mRNA; Optimal T/C (%) (test/control) (OVCAR-3 (ovarian); 0.5 mg/kg): 40%; Optimal T/C (%) (test/control) (OVCAR-3 (ovarian); 1 mg/kg): 4%; IC50 (Hs 688(A).T): > 10000 nM; IC50 (Detroit 562): 81.1 nM; IC50 (Daoy): 3610 nM; IC50 (D283 Med): 68.8 nM; IC50 (A-253): 601 nM; IC50 (A204): 157 nM; IC50 (RPMI 8226): 3270 nM; IC50 (MEG01): 1070 nM; IC50 (TCCSUP): 1180 nM; IC50 (SH-4): 698 nM; oral bioavailability ([2]; dogs): orally bioavailable; AUC(0-inf) ([2]; IV 0.33 mg/kg): 1130 ng·h/mL; AUC(0-t) ([2]; IV 0.33 mg/kg): 1050 ng·h/mL; Cmax ([2]; IV 0.33 mg/kg): 552 ng/mL; half-life ([2]; IV 0.33 mg/kg): 135 min; AUC(0-inf) ([2]; PO 0.15 mg/kg): 439 ng·h/mL; AUC(0-t) ([2]; PO 0.15 mg/kg): 409 ng·h/mL; Cmax ([2]; PO 0.15 mg/kg): 104 ng/mL; Tmax ([2]; PO 0.15 mg/kg): 60 min; half-life ([2]; PO 0.15 mg/kg): 112 min; AUC(0-inf) ([2]; PO 0.33 mg/kg): 880 ng·h/mL; AUC(0-t) ([2]; PO 0.33 mg/kg): 790 ng·h/mL; Cmax ([2]; PO 0.33 mg/kg): 210 ng/mL; Tmax ([2]; PO 0.33 mg/kg): 40.2 min; half-life ([2]; PO 0.33 mg/kg): 140 min; AUC(0-inf) ([2]; PO 0.67 mg/kg): 1760 ng·h/mL; AUC(0-t) ([2]; PO 0.67 mg/kg): 1570 ng·h/mL; Cmax ([2]; PO 0.67 mg/kg): 463 ng/mL; Tmax ([2]; PO 0.67 mg/kg): 49.8 min; half-life ([2]; PO 0.67 mg/kg): 136 min; AUC(0-inf) ([2]; PO 1.5 mg/kg): 3370 ng·h/mL; AUC(0-t) ([2]; PO 1.5 mg/kg): 3200 ng·h/mL; Cmax ([2]; PO 1.5 mg/kg): 882 ng/mL; Tmax ([2]; PO 1.5 mg/kg): 40.2 min; half-life ([2]; PO 1.5 mg/kg): 101 min; AUC(0-inf) ([2]; PO 3.0 mg/kg): 5620 ng·h/mL; AUC(0-t) ([2]; PO 3.0 mg/kg): 5380 ng·h/mL; Cmax ([2]; PO 3.0 mg/kg): 1670 ng/mL; Tmax ([2]; PO 3.0 mg/kg): 25 min; half-life ([2]; PO 3.0 mg/kg): 99 min; oral bioavailability ([3]; mice): orally bioavailable; AUC(0-inf) ([3]; Table 3, IV 1 mg/kg): 269 ng·h/mL; AUC(0-t) ([3]; Table 3, IV 1 mg/kg): 257 ng·h/mL; Cmax ([3]; Table 3, IV 1 mg/kg): 341 ng/mL; Tmax ([3]; Table 3, IV 1 mg/kg): 4.98 min; half-life ([3]; Table 3, IV 1 mg/kg): 30.2 min; AUC(0-inf) ([3]; Table 3, PO 0.5 mg/kg): 68.5 ng·h/mL; AUC(0-t) ([3]; Table 3, PO 0.5 mg/kg): 62.4 ng·h/mL; Cmax ([3]; Table 3, PO 0.5 mg/kg): 51.8 ng/mL; Tmax ([3]; Table 3, PO 0.5 mg/kg): 18 min; half-life ([3]; Table 3, PO 0.5 mg/kg): 42.1 min; AUC(0-inf) ([3]; Table 3, PO 1 mg/kg): 112 ng·h/mL; AUC(0-t) ([3]; Table 3, PO 1 mg/kg): 106 ng·h/mL; Cmax ([3]; Table 3, PO 1 mg/kg): 103 ng/mL; Tmax ([3]; Table 3, PO 1 mg/kg): 18 min; half-life ([3]; Table 3, PO 1 mg/kg): 37.7 min; AUC(0-inf) ([3]; Table 3, PO 3 mg/kg): 931 ng·h/mL; AUC(0-t) ([3]; Table 3, PO 3 mg/kg): 919 ng·h/mL; Cmax ([3]; Table 3, PO 3 mg/kg): 576 ng/mL; Tmax ([3]; Table 3, PO 3 mg/kg): 27 min; half-life ([3]; Table 3, PO 3 mg/kg): 49.4 min; AUC(0-inf) ([3]; Table 3, PO 10 mg/kg): 2600 ng·h/mL; AUC(0-t) ([3]; Table 3, PO 10 mg/kg): 2580 ng·h/mL; Cmax ([3]; Table 3, PO 10 mg/kg): 1930 ng/mL; Tmax ([3]; Table 3, PO 10 mg/kg): 27 min; half-life ([3]; Table 3, PO 10 mg/kg): 66.6 min; Testicular toxicity, including decreased sperm count (GLP rat Toxicology study; rat): reversible upon discontinuation; Toxicity target organs (GLP rat Toxicology study; rat, 2.5, 5 and 10 mg/kg per day): bone marrow, thymus, heart, and testes
